The values below are quoted from earlier work in PMC3341666 (Biochemistry, 2009).

For series [1], the target named is Prostate-Specific Antigen (PSA) (Homo sapiens, UniProt P07288). Particulars: introduction statement, no reference given.
A further series concerns the target Bovine α-Chymotrypsin (Bos taurus, UniProt P00766). The settings on record: previous study.

Sequence of Prostate-Specific Antigen (PSA) (P07288 25-261): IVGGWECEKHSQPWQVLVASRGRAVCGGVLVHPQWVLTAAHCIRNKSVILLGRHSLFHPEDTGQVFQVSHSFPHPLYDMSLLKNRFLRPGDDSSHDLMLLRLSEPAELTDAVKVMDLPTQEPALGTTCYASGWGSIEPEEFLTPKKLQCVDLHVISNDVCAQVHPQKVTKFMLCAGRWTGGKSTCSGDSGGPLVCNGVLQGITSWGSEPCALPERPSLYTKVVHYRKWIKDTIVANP

Consider `O=S(=O)(F)Cc1ccccc1` [PMSF, phenylmethylsulphonyl fluoride], for which, in series [1], the “PSA inhibition (in words)” value is “poor PSA inhibitors”. Regarding `Cc1ccc(S(=O)(=O)N[C@@H](Cc2ccccc2)C(=O)CCl)cc1` [TPCK, tosyl-phenylalanine chloromethylketone], in series [1], the “PSA inhibition (in words)” value was “poor PSA inhibitors”.

Turning to Z-SSKL(boro)L, the “fold higher Ki for chymotrypsin (vs PSA)” value on Bovine α-Chymotrypsin is recorded as ~ 65 fold.
